Key:
[1] = tested on: Botryotinia fuckeliana (Botrytis cinerea); test: Botryotinia fuckeliana (Botrytis cinerea) liquid culture (gray mould); format: cell-based; conditions: 200 ppm in the formulation, Vogels broth, 24° C., photometric, 3-4 days after application, vs untreated control, read-out: disease control (inhibition of growth)
Procedure: Botryotinia fuckeliana (Botrytis cinerea) Liquid Culture (Gray Mould) Conidia of the fungus from cryogenic storage are directly mixed into nutrient broth (Vogels broth). After placing a (DMSO) solution of test compound into a microtiter plate (96-well format), the nutrient broth containing the fungal spores is added. The test plates are incubated at 24° C. and the inhibition of growth is determined photometrically 3-4 days after application.

[2] = tested on: Monographella nivalis (Microdochium nivale); test: Monographella nivalis (Microdochium nivale) / liquid culture (foot rot cereals); format: cell-based; conditions: 200 ppm in the formulation, PDB broth, 24° C., photometric, 4-5 days after application, vs untreated control, read-out: disease control (inhibition of growth)
Procedure: Monographella nivalis (Microdochium nivale)/Liquid Culture (Foot Rot Cereals) Conidia of the fungus from cryogenic storage are directly mixed into nutrient broth (PDB potato dextrose broth). After placing a (DMSO) solution of test compound into a microtiter plate (96-well format), the nutrient broth containing the fungal spores is added. The test plates are incubated at 24° C. and the inhibition of growth is determined photometrically 4-5 days after application.

[3] = tested on: Puccinia recondita f. so. tritici; test: Puccinia recondita f. sp. tritici / wheat / leaf disc preventative (brown rust); format: in vivo; conditions: foliar, 200 ppm in the formulation, wheat leaf segments cv. Kanzler, 7-9 days after application, vs untreated control, read-out: disease control
Procedure: Puccinia recondita f. so. tritici/Wheat/Leaf Disc Preventative (Brown Rust)
Wheat leaf segments cv. Kanzler are placed on agar in multiwell plates (24-well format) and sprayed with the formulated test compound diluted in water. The leaf disks are inoculated with a spore suspension of the fungus 1 day after application. The inoculated leaf segments are incubated at 19° C. and 75% rh under a light regime of 12 h light/12 h darkness in a climate cabinet and the activity of a compound is assessed as percent disease control compared to untreated when an appropriate level of disease damage appears in untreated check leaf segments (7-9 days after application).

[4] = tested on: Mycosphaerella arachidis (Cercospora arachidicola); test: Mycosphaerella arachidis (Cercospora arachidicola) / liquid culture (early leaf spot); format: cell-based; conditions: 200 ppm in the formulation, PDB broth, 24° C., photometric, 4-5 days after application, vs untreated control, read-out: disease control (inhibition of growth)
Procedure: Mycosphaerella arachidis (Cercospora arachidicola)/Liquid Culture (Early Leaf Soot) Conidia of the fungus from cryogenic storage are directly mixed into nutrient broth (PDB potato dextrose broth). After placing a (DMSO) solution of test compound into a microtiter plate (96-well format), the nutrient broth containing the fungal spores is added. The test plates are incubated at 24° C. and the inhibition of growth is determined photometrically 4-5 days after application.

[5] = tested on: Mycosphaerella graminicola (Septoria tritici); test: Mycosphaerella graminicola (Septoria tritici) / liquid culture (Septoria blotch); format: cell-based; conditions: Zymoseptoria tritici; 200 ppm in the formulation; PDB broth, 24° C., photometric, 4 to 5 days after application; vs untreated control; read-out: disease control (inhibition of growth)
Procedure: Mycosphaerella graminicola (Septoria tritici)/Liquid Culture (Septoria Blotch) Conidia of the fungus from cryogenic storage are directly mixed into nutrient broth (PDB potato dextrose broth). After placing a (DMSO) solution of test compound into a microtiter plate (96-well format), the nutrient broth containing the fungal spores is added. The test plates are incubated at 24° C. and the inhibition of growth is determined photometrically 4 to 5 days after application.

[6] = tested on: Phaeosphaeria nodorum (Setoria nodorum); test: Phaeosphaeria nodorum (Septoria nodorum) / wheat / leaf disc preventative (glume blotch); format: in vivo; conditions: Parastagonospora nodorum, foliar, 200 ppm in the formulation, wheat leaf segments cv. Kanzler, 5-7 days after application, vs untreated control, read-out: disease control
Procedure: Phaeosphaeria nodorum (Setoria nodorum)/Wheat/Leaf Disc Preventative (Glume Blotch) Wheat leaf segments cv. Kanzler are placed on agar in a multiwell plate (24-well format) and sprayed with the formulated test compound diluted in water. The leaf disks are inoculated with a spore suspension of the fungus 2 days after application. The inoculated test leaf disks are incubated at 20° C. and 75% rh under a light regime of 12 h light/12 h darkness in a climate cabinet and the activity of a compound is assessed as percent disease control compared to untreated when an appropriate level of disease damage appears in untreated check leaf disks (5-7 days after application).

[7] = tested on: Glomerella lagenarium (Colletotrichum lagenarium); test: Glomerella lagenarium (Colletotrichum lagenarium) / liquid culture (anthracnose); format: cell-based; conditions: Colletotrichum orbiculare; 200 ppm in the formulation; PDB broth, 24° C., photometric, 3 to 4 days after application; vs untreated control; read-out: disease control (inhibition of growth)
Procedure: Glomerella lagenarium (Colletotrichum lagenarium)/Liquid Culture (Anthracnose) Conidia of the fungus from cryogenic storage are directly mixed into nutrient broth (PDB potato dextrose broth). After placing a (DMSO) solution of test compound into a microtiter plate (96-well format), the nutrient broth containing the fungal spores is added. The test plates are incubated at 24° C. and the inhibition of growth is measured photometrically 3 to 4 days after application.

[8] = tested on: Magnaporthe grisea (Pyricularia oryzae); test: whole plant or invertebrate; format: in vivo; conditions: foliar, read-out: disease control

COc1ccnc(C(=O)N[C@@H](C)C(=O)OC(C)C(C)n2ccc3c(Br)ccc(F)c32)c1O (stereo partly drawn) [I.ab.001, [2-(4-bromo-7-fluoro-indol-1-yl)-1-methyl-propyl] (2S)-2-[(3-hydroxy-4-methoxy-pyridine-2-carbonyl)amino]propanoate]
≥ 80%: inhibition at 200 ppm [1] | inhibition at 200 ppm [2] | pest or weed control at 200 ppm [3] | inhibition at 200 ppm [4] | inhibition at 200 ppm [5] | pest or weed control at 200 ppm [6] | inhibition at 200 ppm [7]

COc1ccnc(C(=O)N[C@@H](C)C(=O)OC(C)C(C)n2ccc3c(Br)ccc(F)c32)c1OC(C)=O (stereo partly drawn) [I.ab.041, [2-(4-bromo-7-fluoro-indol-1-yl)-1-methyl-propyl] (2S)-2-[(3-acetoxy-4-methoxy-pyridine-2-carbonyl)amino]propanoate]
≥ 80%: pest or weed control at 200 ppm [3] | inhibition at 200 ppm [4] | inhibition at 200 ppm [5] | pest or weed control at 200 ppm [6] | pest or weed control at 200 ppm [8] | inhibition at 200 ppm [7]

COc1ccnc(C(=O)N[C@@H](C)C(=O)OC(C)C(C)c2ncc(Cl)cc2Cl)c1O (stereo partly drawn) [I.an.001, [2-(3,5-dichloro-2-pyridyl)-1-methyl-propyl] (2S)-2-[(3-hydroxy-4-methoxy-pyridine-2-carbonyl)amino] propanoate]
≥ 80%: pest or weed control at 200 ppm [3] | inhibition at 200 ppm [4] | inhibition at 200 ppm [5] | pest or weed control at 200 ppm [6] | pest or weed control at 200 ppm [8] | inhibition at 200 ppm [7]

COc1ccnc(C(=O)N[C@@H](C)C(=O)OC(C)C(C)c2ncc(Cl)cc2Cl)c1OCOC(=O)C(C)C (stereo partly drawn) [I.an.081, [2-[[(1S)-2-[2-(3,5-dichloro-2-pyridyl)-1-methyl-propoxy]-1-methyl-2-oxo-ethyl]carbamoyl]-4-methoxy-3-pyridyl]oxymethyl 2-methylpropanoate]
≥ 80%: inhibition at 200 ppm [2] | pest or weed control at 200 ppm [3] | inhibition at 200 ppm [4] | inhibition at 200 ppm [5] | pest or weed control at 200 ppm [6] | pest or weed control at 200 ppm [8]

COc1ccnc(C(=O)N[C@@H](C)C(=O)OC(C)C(C)c2ccc(Cl)s2)c1O (stereo partly drawn) [I.ar.001, [2-(5-chloro-2-thienyl)-1-methyl-propyl] (2S)-2-[(3-hydroxy-4-methoxy-pyridine-2-carbonyl)amino]propanoate]
≥ 80%: inhibition at 200 ppm [2] | pest or weed control at 200 ppm [3] | inhibition at 200 ppm [4] | inhibition at 200 ppm [5] | pest or weed control at 200 ppm [8] | inhibition at 200 ppm [7]

COc1ccnc(C(=O)N[C@@H](C)C(=O)OC(C)C(C)n2ccc3cccc(Br)c32)c1O (stereo partly drawn) [I.ba.001, [2-(7-bromoindol-1-yl)-1-methyl-propyl] (2S)-2-[(3-hydroxy-4-methoxy-pyridine-2-carbonyl)amino]propanoate]
≥ 80%: inhibition at 200 ppm [2] | pest or weed control at 200 ppm [3] | inhibition at 200 ppm [4] | inhibition at 200 ppm [5] | pest or weed control at 200 ppm [6] | pest or weed control at 200 ppm [8] | inhibition at 200 ppm [7]

COc1ccnc(C(=O)N[C@@H](C)C(=O)OC(C)C(C)n2ccc3c(Cl)ccc(Cl)c32)c1O (stereo partly drawn) [I.bb.001, [2-(4,7-dichloroindol-1-yl)-1-methyl-propyl] (2S)-2-[(3-hydroxy-4-methoxy-pyridine-2-carbonyl)amino] propanoate]
≥ 80%: inhibition at 200 ppm [2] | pest or weed control at 200 ppm [3] | inhibition at 200 ppm [4] | inhibition at 200 ppm [5] | pest or weed control at 200 ppm [6] | pest or weed control at 200 ppm [8] | inhibition at 200 ppm [7]

COc1ccnc(C(=O)N[C@@H](C)C(=O)OC(C)C(C)n2ccc3cc(Br)ccc32)c1O (stereo partly drawn) [I.bc.001, [2-(5-bromoindol-1-yl)-1-methyl-propyl] (2S)-2-[(3-hydroxy-4-methoxy-pyridine-2-carbonyl)amino]propanoate]
≥ 80%: inhibition at 200 ppm [2] | pest or weed control at 200 ppm [3] | inhibition at 200 ppm [4] | inhibition at 200 ppm [5] | pest or weed control at 200 ppm [8] | inhibition at 200 ppm [7]

COc1ccnc(C(=O)N[C@@H](C)C(=O)OC(C)C(C)n2ccc3c(F)ccc(Br)c32)c1O (stereo partly drawn) [I.bd.001, [2-(7-bromo-4-fluoro-indol-1-yl)-1-methyl-propyl] (2S)-2-[(3-hydroxy-4-methoxy-pyridine-2-carbonyl)amino]propanoate]
≥ 80%: inhibition at 200 ppm [2] | pest or weed control at 200 ppm [3] | inhibition at 200 ppm [4] | inhibition at 200 ppm [5] | pest or weed control at 200 ppm [6] | pest or weed control at 200 ppm [8] | inhibition at 200 ppm [7]

COc1ccnc(C(=O)N[C@@H](C)C(=O)OC(C)C(C)n2ccc3c(F)ccc(Br)c32)c1OC(C)=O (stereo partly drawn) [I.bd.041, [2-(7-bromo-4-fluoro-indol-1-yl)-1-methyl-propyl] (2S)-2-[(3-acetoxy-4-methoxy-pyridine-2-carbonyl)amino]propanoate]
≥ 80%: inhibition at 200 ppm [2] | pest or weed control at 200 ppm [3] | inhibition at 200 ppm [4] | inhibition at 200 ppm [5] | pest or weed control at 200 ppm [6] | pest or weed control at 200 ppm [8] | inhibition at 200 ppm [7]

COc1ccnc(C(=O)N[C@@H](C)C(=O)OC(C)C(C)c2nc3ccccc3s2)c1O (stereo partly drawn) [I.e.001, [2-(1,3-benzothiazol-2-yl)-1-methyl-propyl] (2S)-2-[(3-hydroxy-4-methoxy-pyridine-2-carbonyl)amino] propanoate]
≥ 80%: inhibition at 200 ppm [1] | inhibition at 200 ppm [2] | pest or weed control at 200 ppm [3] | inhibition at 200 ppm [4] | inhibition at 200 ppm [5] | pest or weed control at 200 ppm [8] | inhibition at 200 ppm [7]

COc1ccnc(C(=O)N[C@@H](C)C(=O)OC(C)C(C)n2ccc3ccc(C(F)(F)F)cc32)c1O (stereo partly drawn) [I.z.001, [1-methyl-2-[6-(trifluoromethyl)indol-1-yl]propyl] (2S)-2-[(3-hydroxy-4-methoxy-pyridine-2-carbonyl)amino]propanoate]
≥ 80%: inhibition at 200 ppm [1] | inhibition at 200 ppm [2] | pest or weed control at 200 ppm [3] | inhibition at 200 ppm [4] | inhibition at 200 ppm [5] | pest or weed control at 200 ppm [6] | inhibition at 200 ppm [7]
